Test results taken from US12590057B2, “Crystalline complexes” (Theracryf PLC, priority 2020, dated 2026).
Marks after values point to notes of the source that are not given here.

Legend:
Assay type in all cases: physicochemical
[1] = Preliminary stability study, related substances by HPLC; conditions: 25° C./60% RH stability
Procedure: Analysis of samples of sulforaphane:alpha-cyclodextrin complexes as prepared herein were carried out by HPLC according to the following method: • Column—Phenomenex Gemini C18, 5 μm, 110 Å, 250×4.6 mm; • Mobile Phase A: Water (+0.1% TFA); • Mobile Phase B: Acetonitrile (+0.1% TFA); • Flow: 1.5 mL/min; • Injection Volume: 10 μL; • Column Temperature: 25° C.; • Run Time: 40 minutes; • Sample preparation—Accurately weighed and transferred about 320 mg±30 mg of the sample to a 25-mL volumetric flask, added about 15 mL of diluent (70% water, 30% acetonitrile, 0.1% TFA) and mixed until dissolved. Diluted to volume with diluent and mixed. Transferred 3-4 mL to a syringe and filtered using a 0.45 PTFE filter, discarding the first 1-2 ml, and filtered into an autosampler vial and sealed with PTFE lined cap (prepared in duplicate); • HPLC Gradient according to Table 12
Sulforaphane and certain related impurity peaks are summarised in Table 13, Characterisation of the impurities was carried out by LC-MS and ^1H-NMR. Relative Retention Times (RRT) are based on the HPLC method described above.
Samples of Form 1 (batch ref. LS19-0004-S-8002), Form 3 prepared by minimally-agitated drying (Example 5.3; batch ref. 491-PAL-18) and Form 3 prepared by continuously-agitated filter drying (Example 5B—trial 5; batch ref. 00173-005) were stored at 5° C. (Table 14) and at 25° C./60% RH (Table 15) for 8 weeks in 60 ml Duma® bottles fitted with 45 mm Duma® caps and samples were analysed by HPLC according to the above method.

Compression testing = conditions: 20 kg, 50 kg and 100 kg for 2 minutes each
Procedure: 15 mg samples of Example 3 (Form 3) were compressed into 3 mm recess discs under 20 kg, 50 kg and 100 kg of pressure for 2 minutes each.

[2] = Storage at high humidity and/or elevated temperature
Procedure: A sample of Example 3 (Form 3) was stored at 25° C. and 97% RH for 7 days.
A sample of Example 3 (Form 3) was stored at 40° C. and 75% RH for 7 days.

[3] = TGA mass loss (water content) after exposure to ambient conditions
Procedure: TGA data were collected on a TA Instruments Discovery TGA, equipped with a 25-position auto-sampler. Typically, 5-10 mg of each sample was loaded onto a pre-tared aluminium DSC pan and heated at 10° C./min from ambient temperature to 350° C. A nitrogen purge at 25 ml/min was maintained over the sample. The instrument control software was TRIOS and the data were analysed using TRIOS or Universal Analysis.
Example 3 was also analysed by TGA at days 1, 3, 7, 9, 15 and 20 after removal from the vacuum oven and exposure to ambient conditions, as described in Table 6.

[4] = Aqueous manipulation (slurry in water, XRPD)
Procedure: Example 3—Form 3 (100 mg) was placed in a 4 ml vial, to which H2O (200 μl, 2 volumes) was added. The sample was capped and left at ambient temperature overnight. A spatula fill of the slurry was placed in a well and analysed by XRPD in transmission mode. The XRPD analysis was repeated every 5 minutes for 36 minutes on the same sample in the well. An XRPD was recorded 4 hours later too.

[5] = XRPD physical form after storage; conditions: days 7, 9 and 29 after removal from drying oven, ambient conditions
Procedure: XRPD diffractograms were collected on a PANalytical Empyrean diffractometer using Cu Kα radiation (45 kV, 40 mA) in transmission geometry. A 0.5° sat, 4 mm mask and 0.04 rad Soller slits with a focusing mirror were used on the incident beam. A PIXcel^3D detector, placed on the diffracted beam, was fitted with a receiving slit and 0.04 rad Soller slits. The software used for data collection was X'Pert Data Collector using X'Pert Operator Interface. The data were analysed and presented using Diffrac Plus EVA or HighScore Plus.
After removal from the vacuum oven (day 0), Example 3 was reanalysed by XRPD in reflection mode on days 7, 9 and 29.
In a separate study, samples of Form 3 (Example 5.3; batch ref. 491-PAL-18) having an initial water content by KF of 2.3% w/w were tested for water content at various time points after storage double bagged in a HDPE bottle under various conditions as shown in Table 17.

Question: What does the source list for `C[S+]([O-])CCCCN=C=S.OCC1OC2OC3C(CO)OC(OC4C(CO)OC(OC5C(CO)OC(OC6C(CO)OC(OC7C(CO)OC(OC1C(O)C2O)C(O)C7O)C(O)C6O)C(O)C5O)C(O)C4O)C(O)C3O` (stereo not shown) [Form 1]?
Answer: Related substances, HPLC RRT 0.56 (Dimer) ([1]; 8 wk): 0.20 % Area; Related substances, HPLC RRT 0.60 (α-CD adduct) ([1]; 8 wk): 0.10 % Area; Related substances, HPLC RRT 1.14 (Mixed dimer) ([1]; 8 wk): 0.06 % Area; Related substances, HPLC RRT 1.21 (Erysolin) ([1]; 8 wk): 0.30 % Area; Related substances, HPLC RRT 1.58 (Thioether dimer) ([1]; 8 wk): <0.05 % Area; Related substances, Total Impurities ([1]; 8 wk): 0.99 % Area; Related substances, HPLC RRT 0.56 (Dimer) ([1]; Initial): 0.19 % Area; Related substances, HPLC RRT 0.60 (α-CD adduct) ([1]; Initial): 0.06 % Area; Related substances, HPLC RRT 1.14 (Mixed dimer) ([1]; Initial): <0.05 % Area; Related substances, HPLC RRT 1.21 (Erysolin) ([1]; Initial): 0.28 % Area; Related substances, HPLC RRT 1.58 (Thioether dimer) ([1]; Initial): <0.05 % Area; Related substances, Total Impurities ([1]; Initial): 0.90 % Area

Question: For `C[S+]([O-])CCCCN=C=S.OC[C@H]1O[C@@H]2O[C@H]3[C@H](O)[C@@H](O)[C@@H](O[C@H]4[C@H](O)[C@@H](O)[C@@H](O[C@H]5[C@H](O)[C@@H](O)[C@@H](O[C@H]6[C@H](O)[C@@H](O)[C@@H](O[C@H]7[C@H](O)[C@@H](O)[C@@H](O[C@H]1[C@H](O)[C@H]2O)O[C@@H]7CO)O[C@@H]6CO)O[C@@H]5CO)O[C@@H]4CO)O[C@@H]3CO` [Form 3], which “decomposition by 1H-NMR after compression” value (Compression testing) is on record?
Answer: No decomposition

Question: What about the “form by XRPD after compression” value (Compression testing) of the same compound?
Answer: still existed as Form 3

Question: And the “decomposition by 1H-NMR” value ([2]; 25° C. and 97% RH for 7 days)?
Answer: no decomposition was evident

Question: What about the “form by XRPD” value ([2]; 25° C. and 97% RH for 7 days) of the same compound?
Answer: converted at this very high humidity level to Form 1

Question: What about the “decomposition by 1H-NMR” value ([2]; 40° C. and 75% RH for 7 days) of the same compound?
Answer: some decomposition had occurred

Question: And the TGA mass loss ([3]; 1 day exposed to ambient conditions, average of two readings)?
Answer: 4.0* % wt

Question: And the TGA mass loss ([3]; 3 days exposed to ambient conditions)?
Answer: 5.1 % wt

Question: What about the TGA mass loss ([3]; 7 days exposed to ambient conditions) of the same compound?
Answer: 5.7 % wt

Question: What about the TGA mass loss ([3]; 9 days exposed to ambient conditions) of the same compound?
Answer: 6.0 % wt

Question: And the TGA mass loss ([3]; 15 days exposed to ambient conditions)?
Answer: 6.4 % wt

Question: What about the TGA mass loss ([3]; 20 days exposed to ambient conditions) of the same compound?
Answer: 6.2 % wt

Question: And the stabilised water content ([3]; after gradual absorption of atmospheric moisture)?
Answer: approximately 6 % wt

Question: What about the “water molecules per 1:1 sulforaphane:α-cyclodextrin complex” value ([3]; at stabilised water content) of the same compound?
Answer: 3.5 to 4

Question: And the “form by XRPD when slurried in water” value ([4]; 2 volumes H2O, ambient temperature overnight, XRPD after 14 and 36 mins)?
Answer: converted to Form 2

Question: What about the “form by XRPD after slurry sample left at ambient conditions” value ([4]; 4 further hours at ambient conditions) of the same compound?
Answer: converted from Form 2 to Form 1

Question: And the “solid state form by XRPD (reflection mode)” value [5]?
Answer: still existed as Form 3
